{"source": "patent US20020193425A1", "about": "“Cancer chemopreventative compounds and compositions and methods of treating cancers” (priority 2001, published 2002)", "key": {"HL-60 cells [1]": {"system": "HL-60 cells", "assay": "Membrane phenotype, cell surface antigen by flow cytometry", "type": "cell-based, human", "settings": "Brusatol 25 ng/ml, 4-day protocol", "experimental": "(§1) Cell lines were tested using a 4-day incubation protocol, unless otherwise specified.\n(§2) 3) Determination of cell surface antigen by flow cytometry. Cells (10^6) were washed with PBS and then incubated for 30 min at room temperature with respective monoclonal antibodies, washed with 20 volumes of diluent (PBS with 0.1% sodium azide and 1% BSA), and resuspended in 0.5 ml of fresh diluent for evaluation. Necrotic cells were excluded from the analysis by propidium iodide (PI) staining. The following mAbs (Sigma, St. Louis, Mo.) were used to assess the maturation level of myeloid cell lines: antiCD15 (Leu M1), antiCD-11b (OKM1), antiCD14 and antiCD13. The following mAbs (Sigma, St. Louis, Mo.) were used to assess the maturation level of lymphocytic cell lines: antiCD20, antiHLA-DR and antikappa light chain.\n(§3) Cells were induced to differentiate with the indicated concentrations of brusatol using a 4-day protocol and then analyzed for membrane markers of differentiation as described under “Materials and methods”. Results are expressed as the specific mean fluorescence intensity (ratio of antigen antibody flourescence over isotype antibody fluorescence), and represents the mean of two independent studies."}, "BV173 [2]": {"system": "BV173", "assay": "Membrane phenotype, cell surface antigen by flow cytometry", "type": "cell-based", "settings": "4-day protocol", "experimental": "as §1, §2, §3"}, "K562 cells": {"system": "K562 cells", "assay": "Membrane phenotype, cell surface antigen by flow cytometry", "type": "cell-based", "settings": "Brusatol 25 ng/ml, 4-day protocol", "experimental": "as §1, §2, §3"}, "Kasumi-1 [3]": {"system": "Kasumi-1", "assay": "Membrane phenotype, cell surface antigen by flow cytometry", "type": "cell-based", "settings": "4-day protocol", "experimental": "as §1, §2, §3"}, "NB4 cells": {"system": "NB4 cells", "assay": "Membrane phenotype, cell surface antigen by flow cytometry", "type": "cell-based", "settings": "Brusatol 10 ng/ml, 4-day protocol", "experimental": "as §1, §2, §3"}, "RS4;11 cells": {"system": "RS4;11 cells", "assay": "Membrane phenotype, cell surface antigen by flow cytometry", "type": "cell-based", "settings": "Brusatol 25 ng/ml, 4-day protocol", "experimental": "as §1, §2, §3"}, "U937 cells": {"system": "U937 cells", "assay": "Membrane phenotype, cell surface antigen by flow cytometry", "type": "cell-based", "settings": "Brusatol 12.5 ng/ml, 4-day protocol", "experimental": "as §1, §2, §3"}, "[4]": {"assay": "Withdrawal assays, growth and differentiation of HL-60 cells", "type": "cell-based, human", "settings": "human, HL-60 cells", "experimental": "(§4) The irreversibility of brusatol effects on growth and differentiation of HL-60 cells was tested using withdrawal assays during a 4-day experiment.\n(§5) The assay lasted for 4 days (96 h) and then, cells were analyzed for viability and differentiation markers. […] Results are shown as the mean of duplicate samples (±standard deviation)."}, "HL-60 cells [5]": {"system": "HL-60 cells", "assay": "Withdrawal assays, growth and differentiation of HL-60 cells", "type": "cell-based, human", "settings": "12.5 ng/ml", "experimental": "as §4, §5"}, "[6]": {"assay": "Cytotoxicity, viability by Trypan blue exclusion", "settings": "human, HL-60 cells, Cytotoxicity (IC50, ng/ml), four days", "method": "(§6) HL-60, K562, U937, Reh and Daudi cells were obtained from the American Type Culture Collection (Rockville, Md.). Kasumi-1, NB4, BV173, SUPB13, and RS4;11 cells were provided by the Section of Hematology/Oncology, University of Illinois College of Medicine, Chicago, Ill. All cell lines were maintained in suspension culture using RPMI 1640 medium supplemented with 10% heat-inactivated fetal bovine serum, 100 units of penicillin/ml and 100 μg of streptomycin/ml at 37° C. in a humidified atmosphere of 5% CO2 in air. All cells were routinely tested for mycoplasma contamination.\n(§7) Cellular viability was monitored by Trypan blue exclusion. Inhibition of [3H]thymidine incorporation into DNA was determined to assess the level of cell proliferation as well as DNA synthesis inhibition. […] The filters were counted using a Microbeta™ liquid scintillation counter (Wallac, Turku, Finland) with scintillation fluid. Finally, the percentage of [3H]thymidine incorporation per 10^6 cells was calculated by dividing the dpm of sample-treated cells by the dpm of DMSO-treated cells.\n(§8) ^aViability was determined by Trypan blue exclusion in duplicate samples. […] Results are expressed as median inhibitory cell concentrations of two independent experiments (±standard deviations)."}, "HL-60": {"system": "HL-60", "assay": "Cytotoxicity, viability by Trypan blue exclusion", "settings": "four days", "method": "as §6, §7, §8"}, "[7]": {"assay": "Cytotoxicity, viability by Trypan blue exclusion", "settings": "human, K562 cells", "method": "as §6\n(§9) Cellular viability was monitored by Trypan blue exclusion. Inhibition of [3H]thymidine incorporation into DNA was determined to assess the level of cell proliferation as well as DNA synthesis inhibition. Cells were treated with test samples for four days and then placed into 96-well plates (100 μl) and treated with [3H]thymidine (0.5 μCi/ml, 65 Ci/mmol) for 18 h at 37° C. in a 5% CO2 incubator. Cells then were collected on glass fiber filters using a TOMTEC Harvester 96®. The filters were counted using a Microbeta™ liquid scintillation counter (Wallac, Turku, Finland) with scintillation fluid. Finally, the percentage of [3H]thymidine incorporation per 10^6 cells was calculated by dividing the dpm of sample-treated cells by the dpm of DMSO-treated cells.\nas §8"}, "[8]": {"assay": "Cytotoxicity, viability by Trypan blue exclusion", "settings": "human, Kasumi-1 cells, Cytotoxicity (IC50, ng/ml), four days", "method": "as §6, §7, §8"}, "Kasumi-1 [9]": {"system": "Kasumi-1", "assay": "Cytotoxicity, viability by Trypan blue exclusion", "settings": "four days", "method": "as §6, §7, §8"}, "[10]": {"assay": "Cytotoxicity, viability by Trypan blue exclusion", "settings": "human, U937 cells, Cytotoxicity (IC50, ng/ml), four days", "method": "as §6, §7, §8"}, "U937": {"system": "U937", "assay": "Cytotoxicity, viability by Trypan blue exclusion", "settings": "four days", "method": "as §6, §7, §8"}, "BV173 [11]": {"system": "BV173", "assay": "Cytotoxicity, viability by Trypan blue exclusion", "settings": "four days", "method": "as §6, §7, §8"}, "[12]": {"assay": "Cytotoxicity, viability by Trypan blue exclusion", "settings": "human, SUPB13 cells, Cytotoxicity (IC50, ng/ml), four days", "method": "(§10) All cell lines were maintained in suspension culture using RPMI 1640 medium supplemented with 10% heat-inactivated fetal bovine serum, 100 units of penicillin/ml and 100 μg of streptomycin/ml at 37° C. in a humidified atmosphere of 5% CO2 in air.\n(§11) Cellular viability was monitored by Trypan blue exclusion.\nas §8"}, "SUPB13": {"system": "SUPB13", "assay": "Cytotoxicity, viability by Trypan blue exclusion", "settings": "four days", "method": "as §10, §11, §8"}, "RS4;11": {"system": "RS4;11", "assay": "Cytotoxicity, viability by Trypan blue exclusion", "settings": "four days", "method": "as §10, §11, §8"}, "[13]": {"assay": "Cytotoxicity, viability by Trypan blue exclusion", "settings": "human", "method": "(§12) Human blood (20 ml) was collected in heparinized sterile tubes and white blood cells were separated using Ficoll reagent (8 ml/5 ml blood diluted in 15 ml Hank's buffered solution). After centrifugation at low speed (1500 rpm) for 30 min, the white coat was removed and washed 3-times with Hank's buffered solution. The cell pellet was resuspended in RPMI 1640 medium supplemented with 10% FBS. This preparation contained >90% lymphocytes and <5% monocytes, as determined by Wright-Giemsa staining.\nas §11, §8"}, "[14]": {"settings": "human beings; single intravenous injection of 3 mg/m^2; cited from earlier work"}, "[15]": {"system": "metastatic breast cancer and malignant melanoma", "settings": "phase II trials, adult patients with metastatic breast cancer and malignant melanoma; cited from earlier work"}, "in vitro [16]": {"assay": "in vitro", "settings": "human", "method": "as §6, §9, §8"}, "in vitro [17]": {"assay": "in vitro", "settings": "human", "remark": "listed apart in the source", "method": "as §12, §11, §8"}, "[18]": {"system": "patients with various types of solid tumors", "settings": "phase I clinical trials; cited from earlier work"}}, "data": [{"smiles": "COC(=O)[C@@]12OC[C@]34[C@H]([C@@H](O)[C@@H]1O)[C@@]1(C)CC(=O)C(O)=C(C)[C@@H]1C[C@H]3OC(=O)[C@H](OC(=O)C=C(C)C)[C@@H]24", "note": "[compound 1, brusatol]", "values": [{"measurement": "CD11b, specific mean fluorescence intensity", "setting": "HL-60 cells [1]", "value": "2.2 ± 0.5"}, {"measurement": "CD13, specific mean fluorescence intensity", "setting": "HL-60 cells [1]", "value": "266.1 ± 55.7"}, {"measurement": "CD14, specific mean fluorescence intensity", "setting": "HL-60 cells [1]", "value": 1.0}, {"measurement": "CD15, specific mean fluorescence intensity", "setting": "HL-60 cells [1]", "value": "177.1 ± 8.7"}, {"measurement": "membrane markers of differentiation, change between control and treated cells", "setting": "BV173 [2]", "value": "did not show any changes"}, {"measurement": "CD11b, specific mean fluorescence intensity", "setting": "K562 cells", "value": "1.0 ± 0.1"}, {"measurement": "CD13, specific mean fluorescence intensity", "setting": "K562 cells", "value": "1.4 ± 0.2"}, {"measurement": "CD14, specific mean fluorescence intensity", "setting": "K562 cells", "value": 1.0}, {"measurement": "CD15, specific mean fluorescence intensity", "setting": "K562 cells", "value": "4.6 ± 1.1"}, {"measurement": "membrane markers of differentiation, change between control and treated cells", "setting": "Kasumi-1 [3]", "value": "did not show any changes"}, {"measurement": "CD11b, specific mean fluorescence intensity", "setting": "NB4 cells", "value": "1.2 ± 0.5"}, {"measurement": "CD13, specific mean fluorescence intensity", "setting": "NB4 cells", "value": "156.1 ± 54.3"}, {"measurement": "CD14, specific mean fluorescence intensity", "setting": "NB4 cells", "value": 1.3}, {"measurement": "CD15, specific mean fluorescence intensity", "setting": "NB4 cells", "value": "18.5 ± 0.4"}, {"measurement": "CD11b, specific mean fluorescence intensity", "setting": "RS4;11 cells", "value": "1.2 ± 0.1"}, {"measurement": "CD13, specific mean fluorescence intensity", "setting": "RS4;11 cells", "value": "1.3 ± 0.2"}, {"measurement": "CD15, specific mean fluorescence intensity", "setting": "RS4;11 cells", "value": "151.9 ± 42.1"}, {"measurement": "CD11b, specific mean fluorescence intensity", "setting": "U937 cells", "value": "2.5 ± 0.2"}, {"measurement": "CD13, specific mean fluorescence intensity", "setting": "U937 cells", "value": "55.7 ± 1.1"}, {"measurement": "CD14, specific mean fluorescence intensity", "setting": "U937 cells", "value": 9.6}, {"measurement": "CD15, specific mean fluorescence intensity", "setting": "U937 cells", "value": "28.5 ± 4.3"}, {"measurement": "viability at 48 h, 12.5 ng/ml", "setting": "[4]; 12.5 ng/ml, 48 h exposure", "value": "> 80", "unit": "%"}, {"measurement": "viability at 72 h, 12.5 ng/ml", "setting": "[4]; 12.5 ng/ml, 72 h exposure", "value": 56, "unit": "%"}, {"measurement": "viability at 96 h, 12.5 ng/ml", "setting": "[4]; 12.5 ng/ml, 96 h exposure", "value": 45, "unit": "%"}, {"measurement": "selectivity ratio", "setting": "[4]; 2-day protocol versus 4-day protocol, read-out: increase in selectivity (differentiation vs cytotoxicity)", "value": 10}, {"measurement": "IC50 at 4 days", "setting": "[4]; 4-day protocol, read-out: cytotoxic IC50", "value": 0.025, "unit": "mg/L"}, {"measurement": "IC50 at 2 days", "setting": "[4]; 2 day-protocol, read-out: cytotoxic IC50", "value": 0.25, "unit": "mg/L"}, {"measurement": "cells induced to differentiate", "setting": "HL-60 cells [5]; withdrawal after 48 h of exposure, 4-day experiment", "value": 41, "unit": "%"}, {"measurement": "cells induced to differentiate", "setting": "HL-60 cells [5]; without withdrawal", "value": 46, "unit": "%"}, {"measurement": "IC50 at 4 days", "setting": "[6]", "value": "0.05 to 0.1", "unit": "mg/L"}, {"measurement": "Cytotoxicity (IC50, ng/ml)", "setting": "HL-60", "value": "50 ± 0.9", "unit": "ng/mL"}, {"measurement": "IC50 at 4 days", "setting": "[7]", "value": "> 0.1", "unit": "mg/L"}, {"measurement": "viability at 4 days, 100 ng/ml", "setting": "[7]", "value": "~90", "unit": "%"}, {"measurement": "IC50 at 4 days", "setting": "[8]", "value": "0.05 to 0.1", "unit": "mg/L"}, {"measurement": "Cytotoxicity (IC50, ng/ml)", "setting": "Kasumi-1 [9]", "value": "75 ± 5.1", "unit": "ng/mL"}, {"measurement": "IC50 at 4 days", "setting": "[10]", "value": "< 0.025", "unit": "mg/L"}, {"measurement": "Cytotoxicity (IC50, ng/ml)", "setting": "U937", "value": "12.5 ± 1.1", "unit": "ng/mL"}, {"measurement": "Cytotoxicity (IC50, ng/ml)", "setting": "BV173 [11]; listed as Brusatol", "value": "5 ± 1.4", "unit": "ng/mL"}, {"measurement": "Cytotoxicity (IC50, ng/ml)", "setting": "BV173 [11]; listed as brusatol", "value": "less than 25 ng/ml"}, {"measurement": "IC50 at 4 days", "setting": "[12]", "value": "< 0.025", "unit": "mg/L"}, {"measurement": "Cytotoxicity (IC50, ng/ml)", "setting": "SUPB13", "value": "20 ± 1.2", "unit": "ng/mL"}, {"measurement": "Cytotoxicity (IC50, ng/ml)", "setting": "RS4;11", "value": "25 ± 2", "unit": "ng/mL"}, {"measurement": "viability at 3 days, 100 ng/ml", "setting": "[13]; peripheral blood lymphocytes stimulated with concanavalin A", "value": "~90", "unit": "%"}, {"measurement": "IC50 at 3 days", "setting": "[13]; peripheral human lymphocytes", "value": "> 0.1", "unit": "mg/L"}]}, {"smiles": "COC(=O)[C@@]12OC[C@]34[C@H]([C@@H](O)[C@@H]1O)[C@@]1(C)CC(=O)C(O)=C(C)[C@@H]1C[C@H]3OC(=O)[C@H](OC(=O)/C=C(\\C)C(C)C)[C@@H]24", "note": "[compound 2, bruceantin]", "values": [{"measurement": "blood level", "setting": "[14]", "value": 0.022, "unit": "µg/mL"}, {"measurement": "objective tumor regressions", "setting": "[15]", "value": "No objective tumor regressions were observed"}, {"measurement": "IC50 at 4 days", "setting": "in vitro [16]", "value": "> 0.05", "unit": "mg/L"}, {"measurement": "IC50 at 3 days", "setting": "in vitro [17]", "value": "> 0.05", "unit": "mg/L"}, {"measurement": "hematologic toxicity", "setting": "[18]", "value": "moderate to insignificant"}]}]}
